Measured values as given in patent publication US7176224B2, “Oxazolyl-aryloxyacetic acid derivatives and their use as PPAR agonists” (Eli Lilly and Company, priority 2000, dated 2007).

What was measured:
Hu apoAI transgenic mice = assay: Evaluation of triglyceride and cholesterol levels in hu apoAI transgenic mice; format: in vivo; details: 30 mg/kg oral gavage daily for 7 days; serum HDLc FPLC area under the curve, over mice receiving vehicle
Description: Five to six week old male mice, transgenic for human apoAI [C57B1/6-tgn(apoa1) 1rub, Jackson Laboratory, Bar Harbor, Me.] were housed five per cage (10″×20″8″ with aspen chip bedding) with food (Purina 5001) and water available at all times. After an acclimation period of 2 weeks, animals were individually identified by ear notches, weighed, and assigned to groups based on body weight. Beginning the following morning, mice were dosed daily by oral gavage for 7 days using a 20 gauge, 1½″ curved disposable feeding needle (Popper & Sons). Treatments were test compounds (30 mg/kg), a positive control (fenofibrate, 100 mg/kg) or vehicle [1% carboxymethylcellulose (w/v)/0.25% Tween80 (w/v); 0.2 ml/mouse]. Prior to termination on day 7, mice were weighed and dosed. Three hours after dosing, animals were anesthetized by inhalation of isoflurane (2–4%; Abbott Laboratories, Chicago, Ill.) and blood obtained via cardiac puncture (0.7–1.0 ml). Whole blood was transferred to serum separator tubes (Vacutainer SST), chilled on ice, and permitted to clot. Serum was obtained after centrifugation at 4° C. and frozen until analysis for triglycerides, total cholesterol, compound levels, and serum lipoprotein profile by fast protein liquid chromatography (FPLC) coupled to an inline detection system. After sacrifice by cervical dislocation, the liver, heart and epididymal fat pads were excised and weighed.
The animals dosed with vehicle had average triglycerides values of 60–80 mg/dl, which were reduced by the positive control fenofibrate (33–58 mg/dl with a mean reduction of 37%). The animals dosed with vehicle had average total serum cholesterol values of 140–180 mg/dl, which were increased by fenofibrate (190–280 mg/dl, with a mean elevation of 41%). […] increased the amount of HDLc (68–96 v-sec with a mean percent increase of 48%).
Glucose was measured colorimetrically using commercially purchased reagents (Sigma #315-500). According to the manufacturers, the procedures were modified from published work (McGowan, M. W., Artiss, J. D., Strandbergh, D. R. & Zak, B. Clin Chem, 20:470–5 (1974) and Keston, A. Specific colorimetric enzymatic analytical reagents for glucose. Abstract of papers 129th Meeting ACS, 31C (1956).); and depend on the release of a mole of hydrogen peroxide for each mole of analyte, coupled with a color reaction first described by Trinder (Trinder, P. Determination of glucose in blood using glucose oxidase with an alternative oxygen acceptor. Ann Clin Biochem, 6:24 (1969)). The absorbance of the dye produced is linearly related to the analyte in the sample. The assays were further modified in our laboratory for use in a 96 well format. Standards (Sigma #339-11, Sigma #16-11, and Sigma #CC0534 for glucose, triglycerides and total cholesterol, respectively), quality control plasma (Sigma # A2034), and samples (2 or 5 μl/well) were measured in duplicate using 200 μl of reagent. An additional aliquot of sample, pipetted to a third well and diluted in 200 μl water, provided a blank for each specimen. Plates were incubated at room temperature (18, 15, and 10 minutes for glucose, triglycerides and total cholesterol, respectively) on a plate shaker (DPC Micormix 5) and absorbance read at 500 nm (glucose and total cholesterol) or 540 nm (triglycerides) on a plate reader (Wallac Victor 1420). Sample absorbances were compared to a standard curve (100–800, 10–500, and 100–400 mg/dl for glucose, triglycerides and total cholesterol, respectively). Values for the quality control sample were always within the expected range and the coefficient of variation for samples was below 10%. All samples from an experiment were assayed at the same time to minimize inter-assay variability.
Serum lipoproteins were separated and cholesterol quantitated with an in-line detection system. Sample was applied to a Superose® 6 HR 10/30 size exclusion column (Amersham Pharmacia Biotech) and eluted with phosphate buffered saline-EDTA at 0.5 ml/min. […]

huPPARα = assay: Cotransfection assay in CV-1 cells, luciferase reporter; format: cell-based, human; details: GAL4 chimeric system, relative to PPARα agonist reference molecule
Description: […] binding (ABCD binding) was carried out using SPA technology with PPAR receptors. Tritium-labeled PPARα and PPARγ agonists were used as radioligands for generating displacement curves and IC50 values with compounds of the invention. Cotransfection assays were carried out in CV-1 cells. The reporter plasmid contained an acylCoA oxidase (AOX) PPRE and TK promoter upstream of the luciferase reporter cDNA. Appropriate PPARs and RXRα were constitutively expressed using plasmids containing the CMV promoter. For PPARα and […], interference by endogenous […] in CV-1 cells was an issue. In order to eliminate such interference, a GAL4 chimeric system was used in which the DNA binding domain of the transfected PPAR was replaced by that of GAL4, and the GAL4 response element was utilized in place of the AOX PPRE. Cotransfection efficacy was determined relative to PPARα agonist and […] reference molecules. Efficacies were determined by computer fit to a concentration-response curve, or in some cases at a single high concentration of agonist (10 μM). For binding or cotransfection studies with receptors other than PPARs, similar assays were carried out using appropriate ligands, receptors, reporter constructs, etc., for that particular receptor.
These studies were carried out to evaluate the ability of compounds of the invention to bind to and/or activate various nuclear transcription factors, particularly huPPARα (“hu” indicates “human”) and huPPARγ. These studies provide in vitro data concerning efficacy and selectivity of compounds of the invention. Furthermore, binding and cotransfection data for compounds of the invention were compared with corresponding data for marketed compounds that act on either huPPARα or huPPARγ.

Compound: Cc1oc(-c2cccc(-c3ccc(F)cc3)c2)nc1CCOc1ccc(CC(C)(Oc2ccccc2)C(=O)O)cc1 (centres unmarked) [Example 4, 3-(4-{2-[2-(4′-Fluorobiphenyl-3-yl)-5-methyloxazol-4-yl]ethoxy}phenyl)-2-methyl-2-phenoxypropionic acid]
- % HDLc Increase (Hu apoAI transgenic mice): 40.4%
- huPPARα CTF Efficacy (huPPARα): 38%
